Measurements reported in patent publication US6683184B2, “Piperazine derivatives and process for the preparation thereof” (Samjin Pharmaceutical Co., Ltd., priority 1999, dated 2004).
Converted amounts (≈) assume the structure as drawn.

Key:
Assay type in all cases: cell-based
[1] = tested on: A549 (human non-small lung cell); test: In vitro antitumor effect against human tumor cell lines, SRB assay, A549; conditions: A549 cells, 48 hours; for IC50: Homo sapiens, read-out: ED50 A 549
Procedure: (§1) In vitro antitumor effect against human tumor cell lines.
(§2) a. Human solid tumor cell lines, A549(non-small lung cell), SKMEL-2(melanoma), HCT-15(colon), SKOV-3(ovarian), XF-498(CNS) were cultured at 37° C. in 5% CO2 incubators using RPMI 1640 media containing 10% FBS, while they were transfer-cultured successively once or twice per week. Cell cultures were dissolved in a solution of 0.25% trypsin and 3 mM CDTA PBS(−) and then cells were separated from media which the cells were sticked on.
(§3) b. 5×10^3˜2×10^4 cells were added into each well of 96-well plate and cultured in 5% CO2 incubator, at 37° C., for 24 hours.
(§4) c. Each sample drug was dissolved in a little DMSO and diluted with the used medium to a prescribed concentration for experiments, wherein the final concentration of DMSO was controlled below 0.5%.
(§5) d. Medium of each well cultured for 24 hours as above b. was removed by aspiration. Each 200 μl of drug samples prepared in c. was added into each well and the wells were cultured for 48 hours. Tz(time zero) plates were collected at the point of time drugs were added.
(§6) e. According to the SRB assay method, cell fixing with TCA, staining with 0.4% SRB solution, washing with 1% acetic acid and elution of dye with 10 mM Tris solution were carried out on Tz plates and culture-ended plates, whereby OD values were measured at 520 nm.
(§7) a. Time zero(Tz) value was determined with measuring the SRB protein amounts of the Tz plates collected at the point of time drugs were added.
(§8) b. Control value(C) was determined with the OD values of wells untreated with a drug.
(§9) c. Drug-treated test value(T) was determined with the OD values of drug-treated wells.
(§10) d. Effects of drugs were estimated with growth stimulation, net growth inhibition, net killing etc., being calculated from Tz, C and T.
(§11) e. If T≧Tz, cellular response function was calculated by 100×(T−Tz)/(C−Tz), and if T<Tz, by 100×(T−Tz)/Tz.

[2] = tested on: SKOV-3 (human ovarian); test: In vitro antitumor effect against human tumor cell lines, SRB assay, SKOV-3; conditions: SK-OV-3 cells, 48 hours; for IC50: Homo sapiens, read-out: ED50 SK-OV-3
Procedure: as §1, §2, §3, §4, §5, §6, §7, §8, §9, §10, §11

[3] = tested on: SKMEL-2 (human melanoma); test: In vitro antitumor effect against human tumor cell lines, SRB assay, SKMEL-2; conditions: SK-MEL-2 cells, 48 hours; for IC50: Homo sapiens, read-out: ED50 SK-MEL-2
Procedure: as §1, §2, §3, §4, §5, §6, §7, §8, §9, §10, §11

[4] = tested on: XF 498 (human CNS); test: In vitro antitumor effect against human tumor cell lines, SRB assay, XF 498; conditions: 48 hours; for ED50 XF-498: XF-498 cells; for IC50: Homo sapiens, XF498, XF-498 cells, read-out: ED50 XF-498
Procedure: as §1, §2, §3, §4, §5, §6, §7, §8, §9, §10, §11

[5] = tested on: HCT-15 (human colon); test: In vitro antitumor effect against human tumor cell lines, SRB assay, HCT-15; conditions: HCT 15 cells, 48 hours; for IC50: Homo sapiens, read-out: ED50 HCT 15
Procedure: as §1, §2, §3, §4, §5, §6, §7, §8, §9, §10, §11

Compound | IC50 [1] [µg/mL] | IC50 [2] [µg/mL] | IC50 [3] [µg/mL] | IC50 [4] [µg/mL] | IC50 [5] [µg/mL] | ED50 A 549 [1] [ng/mL] | ED50 SK-OV-3 [2] [ng/mL] | ED50 SK-MEL-2 [3] [ng/mL] | ED50 XF-498 [4] [ng/mL] | ED50 HCT 15 [5] [ng/mL]
1-[(5,6-Dichloroethyl-2-methoxypyrazin-3-yl)aminocarbonyl]-4-(3,5-dimethoxyphenyl)piperazine [Example 35] | – | – | – | – | – | 0.1 | 0.7 | <0.1 | 0.1 | 0.1
1-[(5,6-Dichloroethyl-2-methoxypyrazin-3-yl)aminocarbonyl]-4-(3,5-dimethylphenyl)piperazine [Example 34] | – | – | – | – | – | 2.3 | 3.8 | 0.3 | 2.1 | 2.1
N.N.[Cl][Pt][Cl] [Cisplatin, reference compound] | – | – | – | – | – | 910 | 1320 | 870 | 770 | 3170
CCc1ccccc1N1CCN(C(=O)Nc2nc(C)c(C)nc2OC)CC1 [Example 4, 1-[(5,6-Dimethyl-2-methoxypyrazin-3-yl)aminocarbonyl]-4-(2-ethylphenyl)piperazine] | 0.047 (≈ 0.127 µM) | 0.251 (≈ 0.679 µM) | 0.042 (≈ 0.114 µM) | 0.089 (≈ 0.241 µM) | 0.038 (≈ 0.103 µM) | – | – | – | – | –
COc1nc(C)c(C)nc1NC(=O)N1CCN(c2ccccc2SC)CC1 [Example 14, 1-[(5,6-Dimethyl-2-methoxypyrazin-3-yl)aminocarbonyl]-4-(2-methylthiophenyl)piperazine] | 0.204 (≈ 0.526 µM) | 0.677 (≈ 1.75 µM) | 0.283 (≈ 0.73 µM) | 0.34 (≈ 0.877 µM) | 0.067 (≈ 0.173 µM) | – | – | – | – | –
CCc1ccccc1N1CCN(C(=O)Nc2nc3ccccc3nc2OC)CC1 [Example 39, 1-[(2-Methoxyquinoxalin-3-yl)aminocarbonyl]-4-(2-ethylphenyl)piperazine] | 0.1 (≈ 0.255 µM) | 0.33 (≈ 0.843 µM) | 0.07 (≈ 0.179 µM) | 0.14 (≈ 0.358 µM) | 0.06 (≈ 0.153 µM) | – | – | – | – | –
COc1nc2ccccc2nc1NC(=O)N1CCN(c2cccc(Br)c2)CC1 [Example 45, 1-[(2-Methoxyquinoxalin-3-yl)aminocarbonyl]-4-(3-bromop-henyl)piperazine] | – | – | – | – | – | 0.1 (≈ 0.000226 µM) | 0.2 (≈ 0.000452 µM) | <0.1 | 0.2 (≈ 0.000452 µM) | 0.1 (≈ 0.000226 µM)
COc1nc2ccccc2nc1NC(=O)N1CCN(c2cc(F)cc(F)c2)CC1 [Example 46, 1-[(2-Methoxyquinoxalin-3-yl)aminocarbonyl]-4-(3,5-difluo-rophenyl)piperazine] | – | – | – | – | – | 2 (≈ 0.00501 µM) | 7 (≈ 0.0175 µM) | 3 (≈ 0.00751 µM) | 1 (≈ 0.0025 µM) | 2 (≈ 0.00501 µM)
COc1nc2ccccc2nc1NC(=O)N1CCN(c2ccccc2SC)CC1 [Example 51, 1-[(2-Methoxyquinoxalin-3-yl)aminocarbonyl]-4-(2-methylt-hiophenyl)piperazine] | – | – | – | – | – | 370 (≈ 0.904 µM) | 680 (≈ 1.66 µM) | 280 (≈ 0.684 µM) | 630 (≈ 1.54 µM) | 180 (≈ 0.44 µM)
COc1cc(OC)cc(N2CCN(C(=Nc3cc(C)c(C)nc3OC)NO)CC2)c1 [Example 101, N-Hydroxy-N′-(5,6-dimethyl-2-methoxypyridin-3-yl)-[4-(3,5-dimethoxyphenyl)piperazin-1-yl]carboxyimidamide] | – | – | – | – | – | 0.3 (≈ 0.000722 µM) | 0.3 (≈ 0.000722 µM) | 0.3 (≈ 0.000722 µM) | 0.2 (≈ 0.000481 µM) | 0.1 (≈ 0.000241 µM)
COc1nc(C)c(C)cc1N=C(NO)N1CCN(c2cc(CO)cc(CO)c2)CC1 [Example 107, N-Hydroxy-N′-(5,6-dimethyl-2-methoxypyridin-3-yl)-{4-[3,5-bis-(hydroxymethyl)phenyl]piperazin-1-yl}carboxyimidamide] | – | – | – | – | – | 32 (≈ 0.077 µM) | 13 (≈ 0.0313 µM) | 5 (≈ 0.012 µM) | 8 (≈ 0.0193 µM) | 9 (≈ 0.0217 µM)
COC(=O)c1cc(N=C(NO)N2CCN(c3cc(OC)cc(OC)c3)CC2)c(OC)nc1C [Example 118, N-Hydroxy-N′-(5-methoxycarbonyl-2-methoxy-6-methylpyridin-3-yl)-[4-(3,5-dimethoxyphenyl)piperazin-1-yl]carboxyimidamide] | – | – | – | – | – | 57 (≈ 0.124 µM) | 32 (≈ 0.0696 µM) | 19 (≈ 0.0413 µM) | 17 (≈ 0.037 µM) | 0.2 (≈ 0.000435 µM)
COC(=O)c1cc(N=C(NO)N2CCN(c3cc(F)cc(F)c3)CC2)c(OC)nc1C [Example 120, N-Hydroxy-N′-(5-methoxycarbonyl-2-methoxy-6-methylpyridin-3-yl)-[4-(3,5-difluorophenyl)piperazin-1-yl]carboxyimidamide] | – | – | – | – | – | 640 (≈ 1.47 µM) | 730 (≈ 1.68 µM) | 280 (≈ 0.643 µM) | 820 (≈ 1.88 µM) | 300 (≈ 0.689 µM)
COc1cc(OC)cc(N2CCN(C(=Nc3cc(CO)c(C)nc3OC)NO)CC2)c1 [Example 125, N-Hydroxy-N′-(5-hydroxymethyl-2-methoxy-6-methylpyridin-3-yl)-[4-(3,5-dimethoxyphenyl)piperazin-1-yl]carboxyimidamide] | – | – | – | – | – | 0.9 (≈ 0.00209 µM) | 0.8 (≈ 0.00185 µM) | 0.1 (≈ 0.000232 µM) | 0.1 (≈ 0.000232 µM) | 0.1 (≈ 0.000232 µM)

The next lines start with results.

IC50 [1] [µg/mL] | IC50 [2] [µg/mL] | IC50 [3] [µg/mL] | IC50 [4] [µg/mL] | IC50 [5] [µg/mL] | Compound | ED50 A 549 [1] [ng/mL] | ED50 SK-OV-3 [2] [ng/mL] | ED50 SK-MEL-2 [3] [ng/mL] | ED50 XF-498 [4] [ng/mL] | ED50 HCT 15 [5] [ng/mL]
0.41 (≈ 1.01 µM) | 1.01 (≈ 2.49 µM) | 0.37 (≈ 0.912 µM) | 0.81 (≈ 2 µM) | 0.39 (≈ 0.962 µM) | COc1nc2ccccc2nc1NC(=O)N1CCN(c2ccccc2C(C)C)CC1 [Example 40, 1-[(2-Methoxyquinoxalin-3-yl)aminocarbonyl]-4-(2-isoprop-ylphenyl)piperazine] | – | – | – | – | –
0.17 (≈ 0.389 µM) | 0.21 (≈ 0.48 µM) | 0.93 (≈ 2.13 µM) | 0.27 (≈ 0.617 µM) | 0.05 (≈ 0.114 µM) | COc1cc(OC)cc(N2CCN(C(=O)N(C)c3nc4ccccc4nc3OC)CC2)c1 [Example 53, 1-[(2-Methoxyquinoxalin-3-yl) N-methylaminocarbonyl]-4-(3,5-dimethoxyphenyl)piperazine] | – | – | – | – | –
0.34 (≈ 0.838 µM) | 0.49 (≈ 1.21 µM) | 0.22 (≈ 0.543 µM) | 0.41 (≈ 1.01 µM) | 0.33 (≈ 0.814 µM) | COc1nc2ccccc2nc1N(C)C(=O)N1CCN(c2cc(C)cc(C)c2)CC1 [Example 55, 1-[(2-Methoxyquinoxalin-3-yl)N-methylaminocarbonyl]-4-(3,5-dimethylphenyl)piperazine] | – | – | – | – | –
0.38 (≈ 0.915 µM) | 0.86 (≈ 2.07 µM) | 0.34 (≈ 0.818 µM) | 0.47 (≈ 1.13 µM) | 0.31 (≈ 0.746 µM) | COc1nc2ccccc2nc1NC(=S)N1CCN(c2cc(F)cc(F)c2)CC1 [Example 68, 1-[(2-Methoxyquinoxalin-3-yl)aminothiocarbonyl]-4-(3,5-difluorophenyl)piperazine] | – | – | – | – | –
0.04 (≈ 0.103 µM) | 0.08 (≈ 0.205 µM) | 0.03 (≈ 0.077 µM) | 0.04 (≈ 0.103 µM) | 0.06 (≈ 0.154 µM) | COc1cc2ccccc2cc1NC(=O)N1CCN(c2cc(C)cc(C)c2)CC1 [Example 86, 1-[(2-Methoxynaphth-3-yl)aminocarbonyl]-4-(3,5-dimethylphenyl)piperazine] | – | – | – | – | –
0.01 (≈ 0.0237 µM) | 0.03 (≈ 0.0712 µM) | 0.66 (≈ 1.57 µM) | 0.08 (≈ 0.19 µM) | 0.008 (≈ 0.019 µM) | COc1cc(OC)cc(N2CCN(C(=O)Nc3cc4ccccc4cc3OC)CC2)c1 [Example 87, 1-[(2-Methoxynaphth-3-yl)aminocarbonyl]-4-(3,5-dimethoxyphenyl)piperazine] | – | – | – | – | –
0.04 (≈ 0.093 µM) | 0.2 (≈ 0.465 µM) | 0.03 (≈ 0.0697 µM) | 0.04 (≈ 0.093 µM) | 0.05 (≈ 0.116 µM) | COc1cc2ccccc2cc1NC(=O)N1CCN(c2cc(Cl)cc(Cl)c2)CC1 [Example 89, 1-[(2-Methoxynaphth-3-yl)aminocarbonyl]-4-(3,5-dichlorophenyl)piperazine] | – | – | – | – | –
0.38 (≈ 0.942 µM) | 0.35 (≈ 0.867 µM) | 0.9 (≈ 2.23 µM) | 0.68 (≈ 1.69 µM) | 0.2 (≈ 0.496 µM) | COc1cc2ccccc2cc1N(C)C(=O)N1CCN(c2cc(C)cc(C)c2)CC1 [Example 90, 1-[(2-Methoxynaphth-3-yl)-N-methylaminocarbonyl]-4-(3,5-dimethylphenyl)piperazine] | – | – | – | – | –
